Reference: ChEMBL document CHEMBL1201862, “PubChem BioAssay data set” (2004)
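Test compounds were applied to cells in 96-well plates for 48 hours at 5 doses. GI50: concentration for 50% inhibition of growth.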 The source made the active and inactive calls. Rule as the data show it: active = GI50 up to about 1.1 µM and inactive = higher.

What was measured:
Experiment in all cases: NCI-60 cell line screen, 48 h
[1] = system: Malme-3M
[2] = system: LOX IMVI
[3] = system: NCI/ADR-RES
[4] = system: NCI-H23
[5] = system: A498
[6] = system: SNB-75
[7] = system: SW-620
[8] = system: OVCAR-5
[9] = system: SK-MEL-28
[10] = system: HOP-62
[11] = system: KM12
[12] = system: M14
[13] = system: HOP-92
[14] = system: HL-60
[15] = system: SF-539
[16] = system: SF-268
[17] = system: UACC-62
[18] = system: OVCAR-3
[19] = system: OVCAR-4

| Compound | GI50 [1] | GI50 [2] | GI50 [3] | GI50 [4] | GI50 [5] | GI50 [6] | GI50 [7] | GI50 [8] | GI50 [9] | GI50 [10] | GI50 [11] | GI50 [12] | GI50 [13] | GI50 [14] | GI50 [15] | GI50 [16] | GI50 [17] | GI50 [18] | GI50 [19] |
| --- | --- | --- | --- | --- | --- | --- | --- | --- | --- | --- | --- | --- | --- | --- | --- | --- | --- | --- | --- |
| C[N+](C)(C)CC(=O)N/N=C/c1ccncc1 | > 100 µM (inactive) | > 100 µM (inactive) | > 100 µM (inactive) | > 100 µM (inactive) | > 100 µM (inactive) | > 100 µM (inactive) | > 100 µM (inactive) | > 100 µM (inactive) | > 100 µM (inactive) | > 100 µM (inactive) | > 100 µM (inactive) | > 100 µM (inactive) | > 100 µM (inactive) | 65.6 µM (inactive) | > 100 µM (inactive) | > 100 µM (inactive) | > 100 µM (inactive) | > 100 µM (inactive) | > 100 µM (inactive) |
| O=C1CCCC1CN1CCCC1 (configuration not stated) | 2.04 µM (inactive) | 8.75 µM (inactive) | 15.7 µM (inactive) | 15.3 µM (inactive) | 22.5 µM (inactive) | 17.1 µM (inactive) | 5.24 µM (inactive) | 18.3 µM (inactive) | 13.6 µM (inactive) | > 67 µM (inactive) | 16.1 µM (inactive) | 1.67 µM (inactive) | 6.56 µM (inactive) | 0.367 µM (active) | 18.8 µM (inactive) | 21.6 µM (inactive) | 17.7 µM (inactive) | 14.2 µM (inactive) | 1.93 µM (inactive) |
| CC(C)Nc1[nH]c(C(=O)c2ccccc2)c(N)c1C(=S)Nc1ccccc1 | 19.3 µM (inactive) | 23.2 µM (inactive) | > 100 µM (inactive) | > 100 µM (inactive) | 77.6 µM (inactive) | 69.3 µM (inactive) | 47 µM (inactive) | > 100 µM (inactive) | 17.4 µM (inactive) | > 100 µM (inactive) | 31.7 µM (inactive) | 23.2 µM (inactive) | > 100 µM (inactive) | > 100 µM (inactive) | > 100 µM (inactive) | 67.8 µM (inactive) | 16.9 µM (inactive) | > 100 µM (inactive) | 71.9 µM (inactive) |
| CCOC(=O)C1(CC(=O)O)CCCC1=O (configuration not stated) | > 100 µM (inactive) | > 100 µM (inactive) | > 100 µM (inactive) | > 100 µM (inactive) | > 100 µM (inactive) | > 100 µM (inactive) | > 100 µM (inactive) | > 100 µM (inactive) | > 100 µM (inactive) | > 100 µM (inactive) | > 100 µM (inactive) | > 100 µM (inactive) | > 100 µM (inactive) | > 100 µM (inactive) | > 100 µM (inactive) | > 100 µM (inactive) | > 100 µM (inactive) | > 100 µM (inactive) | > 100 µM (inactive) |
| O=C(c1ccccc1)c1cc[n+](C2=C([N-]S(=O)(=O)c3ccccc3)C(=O)c3ccccc3C2=O)cc1 | 4.34 µM (inactive) | 2.42 µM (inactive) | 9.38 µM (inactive) | 3.12 µM (inactive) | 18.1 µM (inactive) | 11.6 µM (inactive) | 10 µM (inactive) | 19.2 µM (inactive) | 3.22 µM (inactive) | 10.6 µM (inactive) | 12.6 µM (inactive) | 11.1 µM (inactive) | 8.61 µM (inactive) | 2.15 µM (inactive) | 12.9 µM (inactive) | 11.5 µM (inactive) | 1.88 µM (inactive) | 3.1 µM (inactive) | 13.1 µM (inactive) |
| COC(=O)C1=C(C)NC(C)=C(C(=O)OC)C1c1ccc(NO)cc1 | 13 µM (inactive) | 5.68 µM (inactive) | 18.8 µM (inactive) | 21.3 µM (inactive) | 29.8 µM (inactive) | 13.2 µM (inactive) | 4.09 µM (inactive) | 15.7 µM (inactive) | 17.5 µM (inactive) | 14.6 µM (inactive) | 17.1 µM (inactive) | 14.6 µM (inactive) | 2.68 µM (inactive) | 1.53 µM (inactive) | 15.8 µM (inactive) | 19 µM (inactive) | 13 µM (inactive) | 12.9 µM (inactive) | 10.6 µM (inactive) |
| Clc1ccc(-c2nnc(-c3c(Cl)c(Cl)c(Cl)c(Cl)c3-c3nc4ccccc4[nH]3)o2)cc1 | > 100 µM (inactive) | 71.9 µM (inactive) | 47.4 µM (inactive) | 45 µM (inactive) | 82.8 µM (inactive) | 68.7 µM (inactive) | > 100 µM (inactive) | > 100 µM (inactive) | > 100 µM (inactive) | > 100 µM (inactive) | 97.5 µM (inactive) | 69.8 µM (inactive) | 31.7 µM (inactive) | > 100 µM (inactive) | > 100 µM (inactive) | > 100 µM (inactive) | 63.4 µM (inactive) | 61.7 µM (inactive) | 84.9 µM (inactive) |
| COc1cc(/C=C/C(=O)O)ccc1OS(=O)(=O)O | > 100 µM (inactive) | > 100 µM (inactive) | > 100 µM (inactive) | > 100 µM (inactive) | > 100 µM (inactive) | > 100 µM (inactive) | > 100 µM (inactive) | > 100 µM (inactive) | > 100 µM (inactive) | > 100 µM (inactive) | > 100 µM (inactive) | > 100 µM (inactive) | > 100 µM (inactive) | > 100 µM (inactive) | > 100 µM (inactive) | > 100 µM (inactive) | > 100 µM (inactive) | > 100 µM (inactive) | > 100 µM (inactive) |
